From patent publication US4024252A, “2-(5-Ethyl-6-bromothiazolo[3,2-b]-5-triazolyl)thiophosphonate esters, compositions and method of use” (priority 1973, dated 1977)
≈ marks a conversion by molar mass, not a printed value. Read-outs that look alike come from different tables or passages of the source.

Tests used:
[1] = Toxicity Test 2, medium tolerated limit in carp; type: in vivo, Cyprinus carpio; settings: water
Procedure: The test compound was dissolved in dimethylformamide and said solution was added to 20 liters of water containing 10 carps (Cyprinus carpio) in a fixed concentration.
Dead fish within 48 hours from the addition of test compounds was counted.
The results were shown in Table 8 as medium tolerated limit (TLm).
*TLm is the concentration of test compound which half the number of fish

[2] = Toxicity Test 1, acute oral toxicity; settings: mouse, in vivo; for LD50 at 336 h: po, mice, stomach tube, 25% aqueous gum arabic, 2 weeks (Table 7); for LD50: oral
Text: Suspension of the test compound in 25% aqueous solution of gum arabic was compulsorily treated to six mice by means of a stomack tube and inspection had been made for 2 weeks.

[3] = system: Cabbage armyworm (Leucania separate Walker); assay: Test 2 Insecticidal Activity against Cabbage armyworm; type: in vivo
Procedure: 10 Multigeneration bred armyworms (Leucania separate Walker) were used for one experimental zone.
[…] Then the leaf was set an filter paper having 9 cm diameter in a schale. The test insects were inoculated into the dish and the cover was put on it. After 1 day and 3 days from inoculation, dead insects were counted and mortality (%) were calculated. The results were shown in

[4] = system: house flies (Musca domestica Linne); assay: Test 1 Insecticidal Activity against Fly; type: in vivo; settings: topical; for mortality at 0.25 µg/fly: 0.25γ/a fly; for mortality at 0.5 µg/fly: 0.5γ/a fly
Procedure: Fixed concentration of acetone solution containing test compound were prepared.
20 pieces of female adults of house flies (Musca domestica Linne) were tested with 1 μl of acetone solution at their thoracie dorsal by microcylinge and kept at a temperature of 25° C and at a humidity of 65%. 24 hours and 48 hours after treatment, dead flies were counted and mortality (%) was calculated.

[5] = system: desert spider mite (Tetranychus desertorum Banks); assay: Test 3 Test for Control of Mite; type: in vivo; settings: 72 h, read-out: Rating of mortality
Procedure: About 30 adult female mites of desert spider mite (Tetranychus desertorum Banks) laid on main leaves of the potted kidney bean plants grown 7 to 10 days stage after aprouting. One day later, the wounded mites were removed from the plants. The compounds to be tested were sprayed on the plants as water suspension of emulsifiable concentrate prepared by the method of Example 6. After 1 day and 3 days from spraying, dead mites were counted and mortality (%) was calculated.

[6] = system: Rice stem borer (Chilo suppressalis Walker); assay: Test 4 Insecticidal Activity against Rice stem borer; type: in vivo; settings: 168 h, a week after spraying
Procedure: 20 hatched nymph of Rice stem borer (Chilo suppressalis Walker) were inoculated to the potted rice (height: 30 - 40 cm, number: 4/pot). A week after inoculation, 30 ml of fixed concentration of solution containing test compound were sprayed on the rice in which hatched nymph were inhabiting and the pots were kept at the room temperature. A week after spraying, the rice was opened, dead Rice stem borers were counted and mortality (%) was calculated.

[7] = system: tobacco cutworms (Prodenia litura Fabricius); assay: Test 5 Test for Control of Tobacco cutworm; type: in vivo; settings: 72 h, 3 days; for mortality at 31.3 ppm: 31.3 p.p.m.; for mortality at 62.5 ppm: 62.5 p.p.m.; for mortality at 125 ppm: 125 p.p.m.
Procedure: Then the leaf and 5 tobacco cutworms (Prodenia litura Fabricius) of 3 stages larva were put into a covered dish.
The test was carried out twice. After 3 days from inoculation, dead insects were counted and mortality (%) was calculated.

[8] = system: northern house mosquito (Culex pipiens molestus Forskal); assay: Test 6 Insecticidal Activity against Mosquito; type: in vivo; settings: 24 hours after inoculation, aqueous suspension of wettable powder
Procedure: An aqueous suspension of formulated wettable powder were poured in 200 ml beaker and in which 20 northern house mosquito (Culex pipiens molestus Forskal) were inoculated.

[9] = 48 hours (Table 8), read-out: TLm (medium tolerated limit)
[10] = 48 hrs, read-out: medium tolerance limit (48 hrs) for carp

SMILES	LC50 at 48 h [1, 9]	LD50 at 336 h [2]	mortality at 15.7 ppm ([3]; 24 h)	mortality at 7.8 ppm ([3]; 24 h, 1 day)	mortality at 31.3 ppm ([3]; 24 h, 1 day)	mortality at 15.7 ppm ([3]; 72 h)	mortality at 7.8 ppm ([3]; 72 h, 3 days)	mortality at 31.3 ppm ([3]; 72 h, 3 days)	mortality at 500 ppm [5]	LD50 [2]	other results
CCc1c(Br)sc2nc(OP(=S)(OC(C)C)OC(C)C)nn12 [drawing 16]	> 5 µg/mL	–	–	–	–	–	–	–	–	–	–
CCc1c(Br)sc2nc(OP(=S)(OC)OC)nn12 [drawing 11]	–	> 200 mg/kg	–	–	–	–	–	–	–	–	–
CCc1c(Br)sc2nc(OP(=S)(OC(C)C)OC(C)C)nn12 [Example 3, O,O-diisopropyl 2-(5-ethyl-6-bromothiazolo[3,2-b]-s-triazolyl)thionophosphate]	–	–	60%	50%	100%	100%	90%	100%	–	–	–
CCOP(=S)(OCC)Oc1nc2scc(C)n2n1 [Comparison compound, O,O-diethyl-2-(5-methylthiazolo[3,2-b]-s-triazolyl)thionophosphate, reference compound]	< 0.5 µg/mL	33 to 50 mg/kg	30%	0%	70%	80%	0%	100%	100%	33 to 50 mg/kg	mortality at 0.25 µg/fly ([4]; 24 hrs.): 0%; mortality at 0.25 µg/fly ([4]; 48 hrs.): 10%; mortality at 0.5 µg/fly ([4]; 24 hrs.): 70%; mortality at 0.5 µg/fly ([4]; 48 hrs.): 70%; mortality at 15.6 ppm ([6]; 15.6 ppm): 84%; mortality at 31.3 ppm [6]: 100%; mortality at 31.3 ppm [7]: 0%; mortality at 62.5 ppm [7]: 80%; mortality at 125 ppm [7]: 100%; LC50 [8]: 0.04 µg/mL (≈ 0.13 µM)
CCOP(=S)(OCC)Oc1nc2sc(Br)c(C)n2n1 [O,O-diethyl-2-(5-methyl-6-bromothiazolo[3,2-b]-s-triazolyl)thionophosphate, reference compound]	–	–	–	–	–	–	–	–	–	150 mg/kg	LC50 at 48 h [1, 10]: < 0.05 µg/mL
CCOP(=S)(OCC)Oc1nc2sc(Br)c(CC)n2n1 [Example 2, O,O-Diethyl 2-(5-ethyl-6-bromothiazolo[3,2-b]-s-triazolyl) thionophosphate]	–	280 mg/kg	90%	60%	100%	100%	100%	100%	100%	280 mg/kg	mortality at 0.25 µg/fly ([4]; 24 hrs.): 30%; mortality at 0.25 µg/fly ([4]; 48 hrs.): 40%; mortality at 0.5 µg/fly ([4]; 24 hrs.): 100%; mortality at 0.5 µg/fly ([4]; 48 hrs.): 100%; mortality at 7.8 ppm ([6]; 7.8 ppm): 91%; mortality at 31.3 ppm [6]: 100%; mortality at 15.6 ppm ([7]; 15.6 p.p.m.): 60%; mortality at 31.3 ppm [7]: 80%; mortality at 62.5 ppm [7]: 100%; mortality at 125 ppm [7]: 100%; LC50 [8]: 0.003 µg/mL (≈ 0.0075 µM); LC50 at 48 h [1, 10]: 18.5 µg/mL
CCc1c(Br)sc2nc(OP(=S)(OC)OC)nn12 [Example 1, O,O-Dimethyl 2-(5-ethyl-6-bromothiazolo[3,2-b]s-triazolyl) thionophosphate]	–	–	60%	50%	100%	100%	90%	100%	100%	–	–
CCc1c(Br)sc2nc(OP(=S)(OC)OC)nn12 [drawing 15]	> 5 µg/mL	–	–	–	–	–	–	–	–	–	–
CCc1c(Br)sc2nc(OP(=S)(OC(C)C)OC(C)C)nn12 [drawing 12]	–	> 200 mg/kg	–	–	–	–	–	–	–	–	–
